Assay results as given in US9321722B2, “Bis-indolic derivatives, their uses in particular as antibacterials” (UNIVERSITE JOSEPH FOURIER, priority 2011, dated 2016).
≈ marks a conversion by molar mass, not a printed value.

Assays:
Format in all cases: cell-based
[1] = system: HCT116 (human colon tumor); experiment: In vitro cytotoxicity; conditions: HCT-116, HCT116, in DMSO, duplicate
[2] = system: Staphylococcus cohnii (CHUG-Scoh2); experiment: MIC, Staphylococcus panel (Table I-2); conditions: 18 h, 4% DMSO
Experimental: (§1) We used the previously described protocol, with subtle modifications. The microdilution method recommended by the Clinical and Laboratory Standard Institute [M07-A9, Vol. 32, N^o 2] was used. The activity of bis-indolic compounds was tested against 35 bacterial strains belonging to 12 different Staphylococcus species.
(§2) Bacterial inocula were prepared in Mueller Hinton broth (MH2, BioMerieux, Marcy L'Etoile, France). They were dispensed in 96 well microtiter plates (5×10^5 CFU/ml of final inoculum, 192 μL per well). Indolic compounds diluted in pure DMSO (8 μL per well, concentrated 25 times) were added to the wells as to obtain two-fold serial concentrations (0.5-32 mg/L of final concentrations). The final concentration of DMSO was 4% in each well.
(§3) To avoid cross-contaminations in microtiter plates, one row was left blank between each strain tested. Microplates were incubated for 18 h at 37° C. in ambient air or at 37° C. in 5% CO2 enriched atmosphere for fastidious species. Then MICs were read visually and, in case of visual reading difficulties, confirmed using a spectrophotometer at a wavelength of 630 nm (BioTek® EL808 Absorbance Microplate Reader). MICs corresponded to the minimum bis-indolic compound concentration that allowed complete visual growth inhibition of bacteria. Drug-free cultures served as growth controls.
(§4) Coagulase-negative Staphylococcus strains included three reference strains purchased from CRBIP: a methicillin-susceptible S. epidermidis strain (ATCC 12228), a methicillin-resistant S. epidermidis strain (ATCC 49461), and a methicillin-susceptible S. sciuri strain (ATCC 29061). We also used clinical strains belonging to the following coagulase-negative Staphylococcus species: S. auricularis (two strains), S. warneri (five strains), S. capitis (five strains), S. haemolyticus (four strains), S. hominis (seven strains), S. cohnii (two strains), and S. saprophyticus, S. caprae and S. simulans (one strain each). Identification of the clinical strains was obtained using VITEK® 2 System (Biomérieux).

[3] = system: Staphylococcus haemolyticus (CHUG-Shae1); experiment: MIC, Staphylococcus panel (Table I-2); conditions: 18 h, 4% DMSO
Experimental: as §1, §2, §3, §4

[4] = system: Staphylococcus auricularis (CHUG-Saur1); experiment: MIC, Staphylococcus panel (Table I-2); conditions: 18 h, 4% DMSO
Experimental: as §1, §2, §3, §4

[5] = system: Staphylococcus haemolyticus (CHUG-Scap5); experiment: MIC, Staphylococcus panel (Table I-2); conditions: 18 h, 4% DMSO
Experimental: as §1, §2, §3, §4

[6] = system: Staphylococcus hominis (CHUG-Shom1); experiment: MIC, Staphylococcus panel (Table I-2); conditions: 18 h, 4% DMSO
Experimental: as §1, §2, §3, §4

[7] = system: Staphylococcus capitis (CHUG-Scap5); experiment: MIC, Staphylococcus panel (Table I-2); conditions: 18 h, 4% DMSO
Experimental: as §1, §2, §3, §4

[8] = system: Staphylococcus simulans (CHUG-Ssim1); experiment: MIC, Staphylococcus panel (Table I-2); conditions: 18 h, 4% DMSO
Experimental: as §1, §2, §3, §4

[9] = system: Staphylococcus sciuri ATCC 29061; experiment: MIC, Staphylococcus panel (Table I-2); conditions: Mammaliicoccus sciuri, ATCC29061, 18 h, 4% DMSO
Experimental: as §1, §2, §3, §4

[10] = system: Staphylococcus warneri (CHUG-Swar5); experiment: MIC, Staphylococcus panel (Table I-2); conditions: 18 h, 4% DMSO
Experimental: as §1, §2, §3, §4

[11] = system: Staphylococcus capitis (CHUG-Scap7); experiment: MIC, Staphylococcus panel (Table I-2); conditions: 18 h, 4% DMSO
Experimental: as §1, §2, §3, §4

[12] = system: Staphylococcus capitis (CHUG-Scap1); experiment: MIC, Staphylococcus panel (Table I-2); conditions: 18 h, 4% DMSO
Experimental: as §1, §2, §3, §4

[13] = system: Staphylococcus warneri (CHUG-Swar6); experiment: MIC, Staphylococcus panel (Table I-2); conditions: 18 h, 4% DMSO
Experimental: as §1, §2, §3, §4

[14] = system: Staphylococcus hominis (CHUG-Shom4); experiment: MIC, Staphylococcus panel (Table I-2); conditions: 18 h, 4% DMSO
Experimental: as §1, §2, §3, §4

[15] = system: Staphylococcus hominis (CHUG-Shom6); experiment: MIC, Staphylococcus panel (Table I-2); conditions: 18 h, 4% DMSO
Experimental: as §1, §2, §3, §4

[16] = system: Staphylococcus caprae (CHUG-Scapra1); experiment: MIC, Staphylococcus panel (Table I-2); conditions: 18 h, 4% DMSO
Experimental: as §1, §2, §3, §4

[17] = system: Staphylococcus haemolyticus (CHUG-Scap4); experiment: MIC, Staphylococcus panel (Table I-2); conditions: 18 h, 4% DMSO
Experimental: as §1, §2, §3, §4

[18] = system: Staphylococcus hominis (CHUG-Shom7); experiment: MIC, Staphylococcus panel (Table I-2); conditions: 18 h, 4% DMSO
Experimental: as §1, §2, §3, §4

[19] = system: Staphylococcus epidermidis ATCC 12228; experiment: MIC, Staphylococcus panel (Table I-2); conditions: ATCC12228, 18 h, 4% DMSO
Experimental: as §1, §2, §3, §4

[20] = system: Staphylococcus capitis (CHUG-Scap6); experiment: MIC, Staphylococcus panel (Table I-2); conditions: 18 h, 4% DMSO
Experimental: as §1, §2, §3, §4

[21] = system: Staphylococcus hominis (CHUG-Shom5); experiment: MIC, Staphylococcus panel (Table I-2); conditions: 18 h, 4% DMSO
Experimental: as §1, §2, §3, §4

[22] = system: Staphylococcus warneri (CHUG-Swar4); experiment: MIC, Staphylococcus panel (Table I-2); conditions: 18 h, 4% DMSO
Experimental: as §1, §2, §3, §4

[23] = system: Staphylococcus capitis (CHUG-Scap4); experiment: MIC, Staphylococcus panel (Table I-2); conditions: 18 h, 4% DMSO
Experimental: as §1, §2, §3, §4

[24] = system: Staphylococcus haemolyticus (CHUG-Scap6); experiment: MIC, Staphylococcus panel (Table I-2); conditions: 18 h, 4% DMSO
Experimental: as §1, §2, §3, §4

[25] = system: Staphylococcus aureus MRSA 252; experiment: MIC, Staphylococcus panel (Table I-2); conditions: 18 h, 4% DMSO
Experimental: as §1, §2, §3
(§5) We used four Staphylococcus aureus strains. Two reference strains were provided by the French reference center for Staphylococcus spp. (Lyon, France), including one methicillin-susceptible (MSSA 476) and one methicillin-resistant (MRSA 252) S. aureus strains. The two remaining S. aureus strains were purchased from the CRBIP (Centre de Ressources Biologiques de l'Institut Pasteur): a vancomycin-intermediate strain (ATCC 106414) and a S. aureus strain (SA-1199B) resistant to fluoroquinolones due to overexpression of the NorA multidrug efflux pump.

[26] = system: Staphylococcus aureus ATCC 106414 (VISA); experiment: MIC, Staphylococcus panel (Table I-2); conditions: 18 h, 4% DMSO
Experimental: as §1, §2, §3, §5

[27] = system: Staphylococcus aureus SA-1199B (NorA); experiment: MIC, Staphylococcus panel (Table I-2); conditions: 18 h
Experimental: as §1, §2, §3, §5

[28] = system: Staphylococcus aureus MSSA 476; experiment: MIC, Staphylococcus panel (Table I-2); conditions: 18 h, 4% DMSO
Experimental: as §1, §2, §3, §5

| Structure (SMILES) | IC50 [1] [µM] | MIC [2] [µg/mL] | MIC [3] [µg/mL] | MIC [4] [µg/mL] | MIC [5] [µg/mL] | MIC [6] [µg/mL] | MIC [7] [µg/mL] | MIC [8] [µg/mL] | MIC [9] [µg/mL] | MIC [10] [µg/mL] | MIC [11] [µg/mL] | MIC [12] [µg/mL] | MIC [13] [µg/mL] | MIC [14] [µg/mL] | MIC [15] [µg/mL] | MIC [16] [µg/mL] | MIC [17] [µg/mL] | MIC [18] [µg/mL] | MIC [19] [µg/mL] | MIC [20] [µg/mL] | also measured |
| --- | --- | --- | --- | --- | --- | --- | --- | --- | --- | --- | --- | --- | --- | --- | --- | --- | --- | --- | --- | --- | --- |
| CC(NC(=O)C(=O)c1c[nH]c2ccc(Br)cc12)c1c[nH]c2ccc(Br)cc12 (centres unmarked) [Compound 5, 2-(5-Bromo-1H-indol-3-yl)-N-(1-(5-bromo-1H-indol-3-yl)ethyl)-2-oxoacetamide] | 10.1 | 2 (≈ 4.09 µM) | 4 (≈ 8.18 µM) | 1 (≈ 2.04 µM) | 4 (≈ 8.18 µM) | 4 (≈ 8.18 µM) | 2 (≈ 4.09 µM) | 2 (≈ 4.09 µM) | 4 (≈ 8.18 µM) | 1 (≈ 2.04 µM) | 2 (≈ 4.09 µM) | 2 (≈ 4.09 µM) | 2 (≈ 4.09 µM) | 2 (≈ 4.09 µM) | 2 (≈ 4.09 µM) | 2 (≈ 4.09 µM) | 4 (≈ 8.18 µM) | 2 (≈ 4.09 µM) | 2 (≈ 4.09 µM) | 1 (≈ 2.04 µM) | MIC [21]: 1 µg/mL (≈ 2.04 µM); MIC [22]: 2 µg/mL (≈ 4.09 µM); MIC [23]: 1 µg/mL (≈ 2.04 µM); MIC [24]: 4 µg/mL (≈ 8.18 µM); MIC [25]: 2 µg/mL (≈ 4.09 µM); MIC [26]: 1 µg/mL (≈ 2.04 µM); MIC [27]: 2 µg/mL (≈ 4.09 µM); MIC [28]: 2 µg/mL (≈ 4.09 µM) |
| CC(C)(C)OC(=O)NCC(NC(=O)C(=O)c1c[nH]c2ccc(Br)cc12)c1c[nH]c2ccc(Br)cc12 (centres unmarked) [Compound 4, tert-Butyl(2-(5-bromo-1H-indol-3-yl)-2-(2-(5-bromo-1H-indol-3-yl)-2-oxoacetamido)ethyl) carbamate] | 4.55 | 2 (≈ 3.31 µM) | 1 (≈ 1.65 µM) | 1 (≈ 1.65 µM) | 1 (≈ 1.65 µM) | 2 (≈ 3.31 µM) | 1 (≈ 1.65 µM) | 1 (≈ 1.65 µM) | 2 (≈ 3.31 µM) | 1 (≈ 1.65 µM) | 1 (≈ 1.65 µM) | 1 (≈ 1.65 µM) | 1 (≈ 1.65 µM) | 1 (≈ 1.65 µM) | 1 (≈ 1.65 µM) | 1 (≈ 1.65 µM) | 2 (≈ 3.31 µM) | 1 (≈ 1.65 µM) | 1 (≈ 1.65 µM) | 1 (≈ 1.65 µM) | MIC [21]: 1 µg/mL (≈ 1.65 µM); MIC [22]: 1 µg/mL (≈ 1.65 µM); MIC [23]: 1 µg/mL (≈ 1.65 µM); MIC [24]: 2 µg/mL (≈ 3.31 µM); MIC [25]: 1 µg/mL (≈ 1.65 µM); MIC [26]: 1 µg/mL (≈ 1.65 µM); MIC [27]: 1 µg/mL (≈ 1.65 µM); MIC [28]: 1 µg/mL (≈ 1.65 µM) |
